Patent US20110001042A1, “ASSESSING TREATMENT COMPLIANCE” (priority 2007, published 2011)
Values joined by “and” are separate entries in the source; they are usually repeats but may differ in a detail not shown here. Equal entries are not always repeated.

Columns and labels:
[1] = stability of fluticasone 17β carboxylic acid in pooled urine stored ambient, refrigerated or freeze/thaw; type: physicochemical; settings: for % Diff. 3: Ambient, Day 3; for % Diff 7: Day 7
Method: Fluticasone 17β carboxylic acid was measured in pooled urine samples lacking preservatives that were stored at ambient temperature, were refrigerated, or were frozen and subjected to freeze/thaw cycles (Table 6).
Fluticasone 17β carboxylic acid was measured in pooled urine samples containing boric acid as a preservative that were stored at ambient temperature, were refrigerated, or were frozen and subjected to freeze/thaw cycles (Table 7).
Fluticasone 17β carboxylic acid was measured in pooled urine samples containing glacial acetic acid as a preservative that were stored at ambient temperature, were refrigerated, or were frozen and subjected to freeze/thaw cycles (Table 8).
Fluticasone 17β carboxylic acid was measured in pooled urine samples containing hydrochloric acid as a preservative that were stored at ambient temperature, were refrigerated, or were frozen and subjected to freeze/thaw cycles (Table 9).
Fluticasone 17β carboxylic acid was measured in pooled urine samples containing toluene as a preservative that were stored at ambient temperature, were refrigerated, or were frozen and subjected to freeze/thaw cycles (Table 10).

[2] = sensitivity and specificity of urine fluticasone 17β carboxylic acid after witnessed fluticasone propionate administration in asthma patients; type: in vivo, human; settings: Fluticasone Administered Under Observation, 16-24 hours before sample
Method: In order to evaluate the sensitivity and specificity of fluticasone 17β carboxylic acid, nineteen patients with asthma were recruited. Nine of these subjects were on treatment with fluticasone propionate. As a gold standard of compliance, treatment was documented by an RN study nurse who witnessed the patients' administration of fluticasone propionate 16-24 hours prior to submission of a urine sample for the analysis of fluticasone 17 β carboxylic acid. Urine samples from ten subjects with asthma but not receiving fluticasone propionate were used as controls.

[3] = fluticasone-17β carboxylic acid in urine of patients before, during and after FP therapy by LC-MS/MS; type: in vivo, human
Method: Fluticasone-17β carboxylic acid was extracted from urine using an acetonitrile precipitation followed by methylene chloride liquid extraction of the supernatant. Sixty μL of the reconstituted sample extract was analyzed by LC-MS/MS (ABI 4000). The linearity, precision, recovery and limit of quantitation (LOQ) were determined. Measurement of fluticasone-17β carboxylic acid in urine collected daily from patients before (days 1-2), during (days 3-6; total dose Flovent 110 2 puffs daily), and following cessation of FP therapy (days 7-14) was conducted (n=4). The linear range of fluticasone-17β carboxylic acid measured by LC-MS/MS was 10-9510 pg/mL. The LOQ with a CV<20% was 10 pg/mL, and recovery ranged from 85.8-111.9% with a mean of 97.9%. Within-run precision testing indicated a maximum CV of 9.3% at 10.3 pg/mL. Between-run precision CVs for urine pools spiked with 3 concentrations of fluticasone-17 β carboxylic acid were 10.6% at 11.1 pg/mL, 11.2% at 500.9 pg/mL, and 8.7% at 5116 pg/mL. Detection of fluticasone-17β carboxylic acid in urine from patients prior to FP therapy was <10 pg/mL (days 1 & 2), ranged from 157-1830 pg/mL when receiving therapy (days 3-6) and was undetectable 5 days after stopping therapy (days 11-14). An eight-point calibration curve (0, 10, 25, 100, 200, 1000, 2000, and 10000 pg/mL) and three controls (10, 500 and 5000 pg/mL) were prepared in charcoal stripped-urine and included with each assay run. Aliquots of urine were centrifuged for 5 minutes at 1000g to remove particulate matter. A 1.0 mL fraction of each calibrator, control, and urine sample was transferred into an appropriately labeled 12×75 mm glass tube. Internal standard (100 μL of 40 ng/mL fluorometholone working solution per sample) was added to each calibrator, control, and urine sample followed by gentle vortexing and incubation for 5 minutes at ambient temperature. Acetonitrile with 0.1% HCl (1.5 mL/sample) was then added, and tubes were vortexed and centrifuged at 1500g for 10 minutes. […]

[4] = fluticasone 17β carboxylic acid measured in urine with and without preservatives; type: physicochemical; settings: individual specimens, mean, bias
Method: Fluticasone 17β carboxylic acid was measured in urine samples lacking preservatives or urine samples containing one of the following preservatives: boric acid, glacial acetic acid, HCL, toluene, or sodium bicarbonate (Table 5).
In summary, non-preserved urine can be used effectively. Samples acquired with boric acid preservative indicated an individual bias of −0.6 to 5.0% and a mean bias of 1.4% from non-preserved urine specimen. Samples acquired in glacial acetic acid preservative indicated an individual bias of −18.9 to 17.1% and a mean bias of −1.2% from non-preserved urine specimen. Samples acquired in HCL preservative indicated an individual bias of −14.5 to 9.1% and a mean bias of −5.8% from non-preserved urine specimen. Samples acquired in sodium bicarbonate preservative indicated an individual bias of −94.7 to −92.5% and a mean bias of −93.8% from non-preserved urine specimen. Samples acquired in toluene preservative indicated an individual bias of −10.6 to 9.8% and a mean bias of 0.3% from non-preserved urine specimen. Thus, urine containing boric acid, glacial acetic acid, HCL, or toluene are acceptable. Urine containing sodium bicarbonate preservative is not as acceptable.

- time stable ([1]; boric acid-preserved urine, ambient temperature): 7 days
- freeze-thaw cycles stable ([1]; boric acid-preserved urine, frozen): up to 1 freeze-thaw cycle
- time stable ([1]; boric acid-preserved urine, refrigerated): 3 days
- time stable ([1]; glacial acetic acid-preserved urine, ambient temperature): 7 days
- freeze-thaw cycles stable ([1]; glacial acetic acid-preserved urine, frozen): up to 2 freeze-thaw cycles
- time stable ([1]; hydrochloric acid-preserved urine, ambient temperature): 7 days
- freeze-thaw cycles stable ([1]; hydrochloric acid-preserved urine, frozen): up to 1 freeze-thaw cycle
- time stable ([1]; hydrochloric acid-preserved urine, refrigerated): 3 days
- time stable ([1]; non-preserved urine, ambient temperature): 3 days
- freeze-thaw cycles stable ([1]; non-preserved urine, frozen): up to 3 freeze-thaw cycles
- time stable ([1]; non-preserved urine, refrigerated): 7 days
- freeze-thaw cycles stable ([1]; toluene-preserved urine, immediately frozen): up to 3 freeze-thaw cycles
- % Diff. 3 ([1]; urine Boric Acid): 1.2% and −1.3% and −7.9%
- % Diff. 3 ([1]; urine Boric Acid, mean): −2.7%
- % Diff. 1 ([1]; urine Boric Acid, Freeze/Thaw, F/T 1): −9.3% and −5.4% and −10.1%
- % Diff. 1 ([1]; urine Boric Acid, Freeze/Thaw, F/T 1, mean): −8.3%
- % Diff 7 ([1]; urine Boric Acid, Refrigerated): −14.5% and −10.1% and −16.3%
- % Diff 7 ([1]; urine Boric Acid, Refrigerated, mean): −13.7%
- % Diff. 1 ([1]; urine HCL, Refrigerated, Day 1): −4.6% and −2.6% and −9.5%
- % Diff. 1 ([1]; urine HCL, Refrigerated, Day 1, mean): −5.6%
- % Diff 7 ([1]; urine HCL, Refrigerated): −17.1% and −8.5%
- % Diff 7 ([1]; urine HCL, Refrigerated, mean): −11.4%
- % Diff. 1 ([1]; urine Toluene, Refrigerated, Day 1): −19.5% and −12.4% and −11.4%
- % Diff. 1 ([1]; urine Toluene, Refrigerated, Day 1, mean): −14.4%
- % Diff. 1 ([1]; urine no pres, Freeze/Thaw, F/T 1): 0.0% and −6.6% and −6.1%
- % Diff. 1 ([1]; urine no pres, Freeze/Thaw, F/T 1, mean): −4.2%
- % Diff. 1 ([1]; urine no pres, Refrigerated, Day 1): −7.5% and −4.4% and −11.5%
- % Diff. 1 ([1]; urine no pres, Refrigerated, Day 1, mean): −7.8%
- Negative Urine (number of subjects) [2]: 0
- Positive Urine (number of subjects) [2]: 9
- fluticasone-17β carboxylic acid in urine ([3]; 5 days after stopping therapy (days 11-14)): undetectable
- fluticasone-17β carboxylic acid in urine ([3]; patients prior to FP therapy (days 1 & 2)): < 10 pg/mL
- fluticasone-17β carboxylic acid in urine ([3]; patients receiving therapy (days 3-6; Flovent 110 2 puffs daily)): 157 to 1830 pg/mL
Structure (SMILES): CCC(=O)O[C@]1(C(=O)O)[C@H](C)C[C@H]2[C@@H]3C[C@H](F)C4=CC(=O)C=C[C@]4(C)[C@@]3(F)[C@@H](O)C[C@@]21C [Fluticasone 17β carboxylic acid]
- % Difference between No Pres & HCL ([4]; urine with HCL): −14.5 to 9.1% and −5.8% and 9.1% and −12.1% and −14.5%
- % Difference between No Pres & BA ([4]; urine with boric acid): −0.6 to 5.0% and 1.4% and 5.0% and −0.6% and −0.3%
- % Difference between No Pres & GAA ([4]; urine with glacial acetic acid): −18.9 to 17.1% and −1.2% and 17.1% and −1.7% and −18.9%
- % Difference between No Pres & Na2CO3 ([4]; urine with sodium bicarbonate): −94.7 to −92.5% and −93.8% and −94.2% and −94.7% and −92.5%
- % Difference between No Pres & Toluene ([4]; urine with toluene): 0.3% and −10.6 to 9.8% and −10.6% and 9.8% and 1.6%
